Data set [1] concerns rosettes of the parasite FCR3S1.2. As to the kind of experiment: Rosette disruption in vitro, parasite clone FCR3S1.2 and parasite cultures. Type of data set: cell-based, Plasmodium falciparum. The following applies: for Disruption of rosettes: parasite FCR3S1.2, FIG. 5.
The test system of data set [2] is merozoite invasion of erythrocytes (P. falciparum, parasite FCR3S1.2). As to the kind of experiment: Merozoite invasion inhibition assay. Type of data set: cell-based. Conditions: for Merozoite invasion into fresh red blood cells inhibited: parasite FCR3S1.2, FIG. 8. The protocol:
The merozoite invasion inhibition assay was performed with chemically modified heparin and unfractionated heparin Mature pE (trophozoite) synchronized P. falciparum cultures with a parasitemia of 0.4% and a hematocrit of 2% were grown in micro-cultures (100 ul) in the presence of increasing concentrations of chemically modified heparin or unfractionated heparin at 37° C. for 24-30 h. In order to quantify the parasitemia, the samples were stained for 10 s with acridine orange and then analyzed using a FACS instrument from Becton Dickinson. A minimum of 50,000 cells per sample were collected.

Data set [3] relates to binding of pE to endothelial cells. As to the kind of experiment: Cytoadherence blocking and disruption, dynamic incubation. Type of data set: cell-based, Plasmodium falciparum. Conditions: for Binding of pE to endothelial cell inhibited or reversed: parasite FCR3S1.2, FIG. 7.
Data set [4] in a line: Rat tail incision bleeding time after i.v. dosing. Type of data set: in vivo, Sprague-Dawley rats. The protocol:
(§1) Heparin and a LMWH preparation (Fragmin) were also studied for comparison. Basic test procedures were as follows:
The incision was 9 mm long and 1 mm deep and was standardized using a template device. Blood was blotted from the incision until bleeding stopped. The time during which visible bleeding could be observed was measured, for up to 25 minutes. The longer the bleeding time, the more pronounced the anti-coagulant effects of the administered agent.
(§2) The following compounds and doses were tested (each in groups of 8 rats) in juvenile rats of age 14±1 days: • 2. Saline: (Negative Control) • 3.

Data set [5] has as its system factor Xa. Conditions: for comparison; not said whether anti-factor Xa or anti-factor IIa; cited from earlier work.
Data set [6] is described as follows: Coagulation parameters (APTT, PT) in citrate plasma of dosed rats. Type of data set: in vivo, Sprague-Dawley rats. The protocol: as §1
Forty minutes after dosing, the rats were sacrificed by full bleeding. Citrate stabilized plasma was prepared from the blood. Plasma was stored in aliquots of 1 or 0.5 mL at −70° C. until analysis of APTT and PT.
as §2

Data set [7] concerns factor Xa.
Another data set has as its target factor IIa (Homo sapiens, UniProt P00734).
The test system of data set [8] is rosettes of fresh isolates of children with severe, complicated or mild malaria. Conditions: 100 and 1000 μg/ml, FIG. 6.
The subject of data set [9] is P. falciparum-infected erythrocytes sequestered in the lungs.
Procedure: Human pE were cultivated in vitro and enriched to a parasitemia above 70%. Prior to injection into the animals, human infected erythrocytes were radioactively labeled with ^99mTc. The rats were anaesthetized and the labeled pE erythrocytes were injected intravenously into the tail vein. […] The distribution of the labeled cells was monitored using a gamma camera for 30 min. The relative amount of labeled cells sequestered in the lungs was calculated by comparing the activity of excised lungs to that of the whole animal.
[10] abbreviates: rat bleeding model, normalized to unfractionated heparin = 1.

“Also recorded” adds a separate entry of the source. Like-named read-outs stand apart in the source and are kept apart here.

As to Heparin [reference compound], in data set [1], the Disruption of rosettes result was “dose dependent manner”. The “Merozoite invasion into fresh red blood cells inhibited” value in data set [2] was “dose dependent manner”. In addition, in [3], the “Binding of pE to endothelial cell inhibited or reversed” value was “dose dependent manner”. The “Relative Doses (estimated equipotent relative doses), Bleeding time” value in [4] (rat, in vivo) is on record as 1. The “Anti-coagulant effect (bleeding time and coagulation parameters)” value in data set [4] (rat, in vivo, iv) is reported as “profound effect on all parameters”. In addition, the “Specific anti-coagulant activity, value corresponding to Table 5” value with factor Xa [5] is given as “at least 180 IU/mg”. Besides, the “Relative Doses (estimated equipotent relative doses), APTT” value in data set [6] (rat, in vivo) was 1.
On to sevuparin sodium [DF02], for which, in [1] (1000 μg/ml, with some parasites), the “Disruption of rosettes at highest concentration” value is “total or close to total disruption of rosettes”. The Disruption of rosettes result in data set [1] is on record as “dose dependent manner”. Further, the entries for the “Anticoagulant activity anti-factor Xa” value in the data set with factor Xa [7] (drug substance Batch 1), in the data set on factor Xa [7] (drug substance Batch 2) and in the data set with factor Xa [7] (drug substance Batch 3) were 3.9 IU/mg, 4.9 IU/mg and 5.5 IU/mg, respectively. The “Inhibitory effect on merozoite invasion compared with heparin” value in data set [2] (in vitro) is recorded as “equal potency per mg to heparin; also recorded: equal to those of standard heparin”. Also, the “Merozoite invasion into fresh red blood cells inhibited” value in data set [2] is “dose dependent manner”. Besides, the “Anticoagulant FIIa activity” value was determined as 4.6 IU/mg at factor IIa (drug substance Batch 1), 5.0 IU/mg at factor IIa (drug substance Batch 2) and 3.8 IU/mg at factor IIa (drug substance Batch 3). For the same substance, the “Cytoadherence disruption: reduction of binding” value in data set [3] (pE adhered to the endothelium before incubation, FIG. 7) was “Up to 80%”. Moreover, in [3] (pE and substance added simultaneously to the endothelium), the “Cytoadherence blocking: binding of pE blocked compared with untreated samples” value was “Up to 80%”. In [3], the “Binding of pE to endothelial cell inhibited or reversed” value was “dose dependent manner”. The “Anti-coagulant effect (bleeding time and coagulation parameters)” value in [4] (adult rats, i.v.) is “low anti-coagulant effect”; in [4] (juvenile rats, age 14±1 days) it was “low anti-coagulant effect”. In addition, the “Relative Doses (estimated equipotent relative doses), Bleeding time” value in [4] (setting [10]) is recorded as 30-50. Moreover, in data set [8], the “Sensitivity of rosettes of fresh isolates to treatment” value is “sensitive”. The “Effect on PT” value in data set [6] (adult rats, i.v.) is on record as “too weak to allow for comparative estimates”; in [6] (juvenile rats, age 14±1 days), “weak”. The “Relative Doses (estimated equipotent relative doses), APTT” value in data set [6] (setting [10]) is given as 30-40. In addition, the “Sequestration of infected erythrocytes in the lungs of rats” value in [9] (FIG. 9) is listed as “can be inhibited”. In addition, the “Retention of uninfected labeled human erythrocytes, co-injection versus no substance” value in [9] (rat) is on record as “No difference was seen”.

The record behind these values is patent publication US9480701B2, “Low anticoagulant heparins” (priority 2012, dated 2016).
